Source: a compilation of properties of binary mixtures (doi:10.1021/acs.jced.0c00495)

Assay: xn = mol fraction of the nth substance listed
Conditions: 101.3 kPa

Nc1ccccc1 + CCCCCCCCn1cc[n+](C)c1.F[B-](F)(F)F
x2 = 0
Conditions	speed of sound [m/s]
293.15 K	1657
298.15 K	1638
303.15 K	1618
308.15 K	1599
318.15 K	1561
323.15 K	1542

Nc1ccccc1 + CCCCCC[n+]1ccn(C)c1.F[B-](F)(F)F
x2 = 0
Conditions	speed of sound [m/s]
293.15 K	1657
298.15 K	1638
303.15 K	1618
308.15 K	1599

Nc1ccccc1 + CCCC[n+]1ccn(C)c1.F[B-](F)(F)F
speed of sound [m/s]
Conditions	x2 = 0	x2 = 0.0925	x2 = 0.2022	x2 = 0.2995	x2 = 0.4002	x2 = 0.4982	x2 = 0.5953	x2 = 0.6935	x2 = 0.7904	x2 = 0.9191
293.15 K	–	1656	–	1645	1634	–	1613	1603	–	1583
298.15 K	1638	–	1636	1630	1619	–	1600	1590	1581	1571
303.15 K	–	1623	1619	1614	1604	1595	1587	–	–	–
308.15 K	1599	1606	1603	–	1590	–	1573	1565	1557	1548
313.15 K	–	1588	1587	1582	–	1568	1560	1553	1546	1537
318.15 K	1561	1570	1571	1566	1561	–	1548	–	1534	1526
323.15 K	–	1553	1555	–	–	1541	–	1529	1523	1516

CCCCCCCCn1cc[n+](C)c1.F[B-](F)(F)F + Nc1ccccc1
speed of sound [m/s]
Conditions	x1 = 0.0996	x1 = 0.1904	x1 = 0.2853	x1 = 0.3789	x1 = 0.4955	x1 = 0.5783	x1 = 0.6966	x1 = 0.7938	x1 = 0.8958
293.15 K	1640	1619	1595	1574	1553	1540	1526	1516	–
298.15 K	–	–	1580	1560	1539	1526	1512	–	1494
303.15 K	–	–	1564	1545	1525	1513	1499	1488	–
308.15 K	1589	–	1549	1530	1511	–	1485	1476	1467
313.15 K	–	1554	1534	–	1496	1485	1472	1463	1454
318.15 K	1554	1538	1518	–	1483	1472	1459	1450	1441
323.15 K	–	–	1502	1486	1469	1458	1446	–	1429

CCCCCC[n+]1ccn(C)c1.F[B-](F)(F)F + Nc1ccccc1
speed of sound [m/s]
Conditions	x1 = 0.0989	x1 = 0.1792	x1 = 0.2896	x1 = 0.3924	x1 = 0.5062	x1 = 0.6042	x1 = 0.6986	x1 = 0.7974	x1 = 0.8962
293.15 K	1653	–	1618	1598	1579	1565	–	–	1539
298.15 K	1636	1623	1603	1583	–	–	1541	1532	1526
303.15 K	–	1606	1586	1568	1550	1537	–	1520	1513
308.15 K	1601	1589	1571	1553	1536	1524	1515	1507	1501
313.15 K	–	1572	1555	1539	1522	1510	1502	1494	1489
318.15 K	1565	1556	1540	1525	1509	–	–	1482	1476
323.15 K	1547	–	1525	–	1496	1485	1477	1470	1464
